Results taken from patent publication US5814666A, “Encapsulated and non-encapsulated nitric oxide generators used as antimicrobial agents” (The United States as represented by the Department of …, priority 1995, dated 1998).
≈ marks a conversion by molar mass, not a printed value. Counter-ions that a name gives are not always drawn. Like-named read-outs stand apart in the source and are kept apart here.

What was measured:
[1] = Half-life of nitric oxide generators at pH 7.4 and 37° C. (Table 1)
[2] = Stability of nitric oxide generators in PBS at room temperature, absorbance (Table 5); conditions: for Initial Abs. / 24-hour Abs.: PBS, at peak wavelength; for Initial Abs.: immediately; for 24-hour Abs.: room temperature; for degraded at 24 h: pbs
[3] = tested on: P. falciparum clone CDC/Indochina III (W2); assay: Anti-malaria in vitro screen, P. falciparum clone W2; conditions: Plasmodium falciparum
Francisella tularensis [4] = format: in vivo, mice
[5] = tested on: P. falciparum clone CDC/Sierra Leone I (D6); assay: Anti-malaria in vitro screen, P. falciparum clone D6; conditions: Plasmodium falciparum
Plasmodium falciparum = assay: Anti-malaria in vitro screen, overall result; conditions: in words
Leishmania major [6] = assay: Blocking Leishmania major growth in vitro compared with glucantime; format: cell-based; conditions: equivalent molar concentrations of NONOates and glucantime
Francisella tularensis [7] = assay: microbe, parasite or virus in culture; format: cell-based; conditions: read-out: IC50 (growth inhibition)
Leishmania major [8] = assay: microbe, parasite or virus in culture; format: cell-based; conditions: read-out: IC50 (growth inhibition)
macrophages = assay: NO2^- / NO release by macrophages after exposure to liposome-encapsulated or non-encapsulated NONOates (Table 8); conditions: non-encapsulated; 50 μM, 1 hr incubation, culture medium after 24 hrs
physchem = conditions: pH 7.4
Candida albicans = assay: microbe, parasite or virus in culture; format: cell-based; conditions: read-out: IC50 (growth inhibition)
DNA synthesis = conditions: in words; cited from earlier work
[9] = in words; cited from earlier work
[10] = pH 7.4
[11] = tested on: Mycobacterium tuberculosis; conditions: direct delivery; in words; cited from earlier work
tumor cells = tumor cells in vitro; in words; cited from earlier work
[12] = pH 7.4, 37° C., result in words
[13] = experiment #1, IP 200 μM two days after inoculation

In the case of C=CCON=[N+]([O-])NC(C)C [A-IPA/NO], the Half-life [1, 12] is reported as “stable”.
CCN(CC)[N+]([O-])=NOS(=O)(=O)N(C)C [S-DEA/NO] showed a Half-life ([1]; pH 7.4) of 30 min.
[Na+].[Na+].[O-][N+]([O-])=NO [OXI/NO, sodium trioxodinitrate(II) monohydrate] showed a Half-life ([1]; pH 7.4, 37° C.) of 2 min.
In the case of CCN(CC)[N+]([O-])=NOCCBr [BE-DEA/NO], the Half-life [1, 12] is reported as “stable”.
For CCN(CC)[N+]([O-])=NOC [M-DEA/NO], the “Initial Abs.” value [2] was 3.454, the “24-hour Abs.” value [2] was 3.020 and the degraded at 24 h [2] was 14%. The Half-life [1, 12] was “stable”.
In the case of CCN(CC)[N+]([O-])=NOCOC(C)=O [acetoxy-DEA/NO], the IC50 [3] is reported as 17.7 µg/mL (≈ 86.5 µM), the IC90 [3] is reported as 19.2 µg/mL (≈ 93.4 µM) and the “#Dead/Total” value (Francisella tularensis [4]; [13]) is reported as 2/4. The “% Protected” value (Francisella tularensis [4]; [13]) was 50%, the Half-life [1, 12] was “stable” and the IC50 [5] was 0.267 µg/mL (≈ 1.3 µM). For the same molecule, the IC90 [5] was 0.295 µg/mL (≈ 1.44 µM), the anti-malarial effectiveness (Plasmodium falciparum) was “effective” and the “times more effective than glucantime at blocking Leishmania major growth” value (“times more effective than glucantime” for short) (Leishmania major [6]) was 8.9 times.
For NCCCNCCCCN(CCCN)[N+]([O-])=NO [SPER/NO, spermine-bis(nitric oxide) adduct monohydrate], the IC50 [3] was 5.65 µg/mL, the IC90 [3] was 10 µg/mL and the IC50 (Francisella tularensis [7]) was < 10 µM. For the same molecule, the IC50 (Leishmania major [8]) was < 100 µM, the “NO2 --(nmol/ml)” value (macrophages) was 1 ± 1 nmol/mL and the IC50 [5] was 5.31 µg/mL. For the same molecule, the IC90 [5] was 9.53 µg/mL, the anti-malarial effectiveness (Plasmodium falciparum) was “effective” and the “times more effective than glucantime” value (Leishmania major [6]) was 6.7 times. For the same molecule, the Half-life (physchem) was 39 min and the IC50 (Candida albicans) was < 100 µM.
In the case of CC(=O)N[C@H](C(=O)O)C(C)(C)SN=O (racemic) [S-nitroso-N-acetylpenicillamine], the “inhibition of DNA synthesis” value (DNA synthesis) is given as “effective at inhibiting DNA synthesis”.
With CCN(CC)[N+]([O-])=NOCCO [HE-DEA/NO] the Half-life [1, 12] was “stable”.
With CCN(CC)[N+]([O-])=NOCOC [MOM-DEA/NO] the “#Dead/Total” value (Francisella tularensis [4]; [13]) was 1/5, the “% Protected” value (Francisella tularensis [4]; [13]) was 80% and the “#Dead/Total” value (Francisella tularensis [4]; experiment #2, IP 200 μM two days after inoculation) was 1/5. The “% Protected” value (Francisella tularensis [4]; experiment #2, IP 200 μM, control 40% protected) was 80%, the anti-microbial effects (Francisella tularensis [4]; two subsequent experiments, in words) was “not found to be significant in two subsequent experiments” and the Half-life ([1]; pH 7.4) was 7200 min.
In the case of CCOC(=O)CON=[N+]([O-])NC(C)C [CEM-IPA/NO], the Half-life [1, 12] is reported as “stable”.
In the case of CCN(CC)[N+]([O-])=NOCC(C)O (stereo not drawn) [HP-DEA/NO], the Half-life [1, 12] is reported as “stable”.
For CCCON=[N+]([O-])N(CC)CC [P-DEA/NO], the Half-life [1, 12] was “stable”.
With NCCN(CCN)[N+]([O-])=NO [DETA/NO] the IC50 [3] was 0.037 µg/mL (≈ 0.227 µM), the IC90 [3] was 0.094 µg/mL (≈ 0.576 µM) and the IC50 (Francisella tularensis [7]) was < 100 µM. The IC50 (Leishmania major [8]) was < 10000 µM, the “NO2 --(nmol/ml)” value (macrophages) was 0 nmol/mL and the IC50 [5] was 4.83 µg/mL (≈ 29.6 µM). For the same molecule, the IC90 [5] was 10.1 µg/mL (≈ 62 µM), the “times more effective than glucantime” value (Leishmania major [6]) was 7.2 times and the IC50 (Candida albicans) was < 100 µM.
With CON=[N+]([O-])NC(C)C [M-IPA/NO] the Half-life [1, 12] was “stable”.
In the case of O=[N+]([O-])OCC(CO[N+](=O)[O-])O[N+](=O)[O-] [glyceryl trinitrate], the tolerance / toxicity [9] is listed as “development of tolerance”.
For C=CON=[N+]([O-])N(CC)CC [V-DEA/NO], the Half-life [1, 12] was “stable”.
With C=CCON=[N+]([O-])N(CC)CC [A-DEA/NO] the Half-life [1, 12] was “stable”.
For CCON=[N+]([O-])N(CC)CC [E-DEA/NO], the Half-life [1, 12] was “stable”.
For COCON=[N+]([O-])NC(C)C [MOM-IPA/NO], the “Initial Abs.” value [2] was 3.530, the “24-hour Abs.” value [2] was 3.340 and the degraded at 24 h [2] was 5%. For the same molecule, the Half-life [1, 12] was “stable”.
For N.N.O=S(=O)(O)[N+]([O-])=NO [SULFI/NO], the Half-life [10] was 7 min.
For CCN(CC)[N+]([O-])=NO [DEA/NO, diethylamine-bis(nitric oxide) adduct sodium salt], the “#Dead/Total” value (Francisella tularensis [4]; [13]) was 5/5, the “% Protected” value (Francisella tularensis [4]; [13]) was 0% and the Half-life ([1]; pH 7.4) was 2 min.
In the case of nitric oxide, the “killing of intracellular pathogens” value [11] is given as “kills intracellular pathogens such as Mycobacterium tuberculosis” and the “inhibition of DNA synthesis and mitochondrial respiration” value (tumor cells) is given as “inhibit DNA synthesis and mitochondrial respiration of tumor cells in vitro”.
